Test system: Halo-PCNA U2OS cells
Assay: Cell cycle block validated by machine-learning cell cycle phase assignment in Halo-PCNA cells
Format: cell-based
Conditions: 2 mM Thymidine (S-phase block) or (G2-M block)
Experimental: Time-lapse microscopy was conducted on Halo-PCNA labeled with 50 nM JFX650, to achieve near-saturating labeling, for 12 hours at 12 frames per hour (FIG. 21A). A machine learning model was then trained using both manually assigned cell stages and time-based progression resulting in both a G1, early S, mid S, late S, G2 and mitosis classifier as well as a regression prediction across the continuum of the cell cycle (FIG. 21B). The predicted cell cycle classification performed well as compared to manual annotation (FIG. 21C). Clear progression of individual cells through the cell cycle was observed when regression prediction was plotted across the time series (FIG. 21D). […] When cells in each cell phase were analyzed separately, it became apparent that the slow-moving population of PCNA was exclusively found in cell predicted to be in S-phase and that there was a marked decrease in the fast-moving population (FIG. 20E). Mean diffusion coefficient of PCNA was then measured for 4,081 individual cells to characterize heterogeneity across the cell population, which is described in large part by cell cycle (FIG. 20F).
Cell cycle as provided above can be automatically determined using an image (e.g., an image of JF549-labeled PCNA). […]

SMILES	fraction of cells assigned to cell cycle phases
O=C1NC(=NCc2cccs2)S/C1=C\c1ccc2ncccc2c1 [RO-3306]	expected enrichment in the fraction of cells assigned to the respective cell phases
Cc1cn([C@H]2C[C@H](O)[C@@H](CO)O2)c(=O)[nH]c1=O [thymidine]	expected enrichment in the fraction of cells assigned to the respective cell phases

Reference: patent publication US20250314638A1, “OBLIQUE LINE SCANNER SYSTEMS AND METHODS FOR HIGH THROUGHPUT SINGLE MOLECULE TRACKING IN LIVING CELLS” (EIKON THERAPEUTICS, INC., priority 2022, published 2025)
